Source: patent US20250179078A1, “INHIBITORS OF NLRP3” (PTC THERAPEUTICS, INC., priority 2022, published 2025)

Biological target: T1, NLRP3 (Homo sapiens, UniProt Q96P20)
T1 construct: host or cells: THP-1 cells differentiated with PMA
Assay: IL-1β Secretion Assay (NLRP3-dependent IL1β secretion in THP1 cells)
Format: cell-based
Settings: PMA-differentiated THP-1 cells; compounds incubated 20 h; 2.5 μM Nigericin 3 h; HTRF IL-1β readout; read-out: IC50 IL-1β Inhibition
Procedure: Monocytic THP-1 cells (ATCC: TIB-202) were maintained in growth media consisting of RPMI 1640 medium (ThermoFisher, Cat #11875-085), 10% FBS (ThermoFisher) and 0.05 mM β-mercaptoethanol (ThermoFisher, Cat #21985-023), according to the provider's instructions. The cell concentration was adjusted to 7.5×10^5 cells/mL, and plated in complete growth media with a final concentration of 100 ng/mL phorbol 12-myristate 13-acetate (PMA, Sigma #P8139). Cells were seeded at 100 µL/well into a 96-well cell culture plate (ThermoFisher Cat #165305) and allowed to differentiate for 24 h in a cell culture incubator at 37° C. with 5% CO2. Cells were washed 1× with 100 ul PBS and replaced with fresh RPMI+5% FBS. Compounds were serial diluted in DMSO with 3 fold dilution for a total of 7 concentrations. Diluted compounds were added to the cells at a ratio of 1:200 and incubated for 20 h. The NLRP3 inflammasome was activated with the addition of 2.5 μM Nigericin (Sigma: Cat #SML1779-1 ml), for 3 h. After incubation, 15 μL of conditioned media was removed and assayed for levels of IL-1β using the HTRF IL-1β assay kit (Cisbio: Cat #62HIL1BPEH) as per the manufacturer's instructions.
Compounds, once produced and prepared according to the present invention, can be assessed in variety of assays to characterize their activities. For example, NLRP3-dependent IL1β secretion was evaluated in THP1 cells. IC50 values of IL1β inhibition were calculated from the plot of percentage of inhibition versus the inhibitor concentration by a logistics fit. TABLE I depict examples of compounds according to generic Formula I. Data which is <1 nM is listed as *****; data 1-10 nM is listed as ****; data 10-100 nM is listed as ***, data 100-300 nM is listed as **, data ≥300 nM is listed as *.

T1 sequence (Q96P20 whole entry): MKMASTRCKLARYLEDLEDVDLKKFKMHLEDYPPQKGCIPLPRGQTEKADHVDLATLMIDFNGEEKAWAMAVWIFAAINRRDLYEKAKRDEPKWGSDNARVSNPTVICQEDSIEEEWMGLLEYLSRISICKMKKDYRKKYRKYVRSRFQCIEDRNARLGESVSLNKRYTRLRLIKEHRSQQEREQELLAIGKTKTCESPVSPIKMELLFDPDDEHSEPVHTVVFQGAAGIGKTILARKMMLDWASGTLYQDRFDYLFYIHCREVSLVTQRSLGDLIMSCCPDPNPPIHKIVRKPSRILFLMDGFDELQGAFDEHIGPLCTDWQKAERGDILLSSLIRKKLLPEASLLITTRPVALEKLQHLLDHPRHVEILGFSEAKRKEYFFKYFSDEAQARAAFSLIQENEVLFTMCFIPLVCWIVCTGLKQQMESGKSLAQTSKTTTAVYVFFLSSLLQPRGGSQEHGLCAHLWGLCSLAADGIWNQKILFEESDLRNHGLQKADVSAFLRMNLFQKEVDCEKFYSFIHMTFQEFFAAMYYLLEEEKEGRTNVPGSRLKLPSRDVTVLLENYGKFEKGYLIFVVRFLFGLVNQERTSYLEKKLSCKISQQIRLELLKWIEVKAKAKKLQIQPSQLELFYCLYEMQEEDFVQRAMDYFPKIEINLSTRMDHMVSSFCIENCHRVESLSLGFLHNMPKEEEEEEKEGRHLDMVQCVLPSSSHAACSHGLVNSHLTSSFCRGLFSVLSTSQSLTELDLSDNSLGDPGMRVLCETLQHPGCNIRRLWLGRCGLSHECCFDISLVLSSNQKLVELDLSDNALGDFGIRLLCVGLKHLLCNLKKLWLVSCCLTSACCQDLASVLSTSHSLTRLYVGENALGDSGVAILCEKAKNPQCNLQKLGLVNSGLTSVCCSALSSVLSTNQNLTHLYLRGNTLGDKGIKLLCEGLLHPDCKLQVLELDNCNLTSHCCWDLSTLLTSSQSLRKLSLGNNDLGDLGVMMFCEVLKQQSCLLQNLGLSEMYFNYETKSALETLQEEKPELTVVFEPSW

First: COc1ccc(-c2nnc(N[C@@H]3CCCN(C)C3)n3cccc23)c(C2CC2)c1 [Compound 27, 1-(2-cyclopropyl-4-methoxyphenyl)-N-[(3R)-1-methylpiperidin-3-yl]pyrrolo[1,2-d][1,2,4]triazin-4-amine]
Second: CN1CCC[C@@H](Nc2nnc(-c3ccc(C4CC4)cc3OC(F)(F)F)c3cccn23)C1 [Compound 37, 1-[4-cyclopropyl-2-(trifluoromethoxy)phenyl]-N-[(3R)-1-methylpiperidin-3-yl]pyrrolo[1,2-d][1,2,4]triazin-4-amine]
The IC50 of the first is higher: 1 to 10 nM for the first, under 1 nM for the second. The second is the more potent here.

`CN1CCC[C@@H](Nc2nnc(-c3ccc(C(F)(F)F)cc3C(F)(F)F)c3c(F)ccn23)C1` [Compound 28, 1-[2,4-bis(trifluoromethyl)phenyl]-8-fluoro-N-[(3R)-1-methylpiperidin-3-yl]pyrrolo[1,2-d][1,2,4]triazin-4-amine] and `CCN1CCC[C@@H](Nc2nnc(-c3ccc(C(F)(F)F)cc3C(F)(F)F)c3c(F)ccn23)C1` [Compound 29, 1-[2,4-bis(trifluoromethyl)phenyl]-N-[(3R)-1-ethylpiperidin-3-yl]-8-fluoropyrrolo[1,2-d][1,2,4]triazin-4-amine] fall in the same range of IC50: 1 to 10 nM for the first, 1 to 10 nM for the second.

`OCCN1CCC[C@@H](Nc2nnc(-c3ccc(C(F)(F)F)cc3C(F)(F)F)c3c(F)ccn23)C1` [Compound 30, 2-[(3R)-3-({1-[2,4-bis(trifluoromethyl)phenyl]-8-fluoropyrrolo[1,2-d][1,2,4]triazin-4-yl}amino)piperidin-1-yl]ethan-1-ol] and `CCN1C[C@H](F)C[C@@H](Nc2nnc(-c3ccc(C(F)(F)F)cc3C(F)(F)F)c3c(F)ccn23)C1` [Compound 32, 1-[2,4-bis(trifluoromethyl)phenyl]-N-[(3R,5R)-1-ethyl-5-fluoropiperidin-3-yl]-8-fluoropyrrolo[1,2-d][1,2,4]triazin-4-amine] fall in the same range of IC50: 1 to 10 nM for the first, 1 to 10 nM for the second.

First: CN1C[C@H](F)C[C@@H](Nc2nnc(-c3ccc(C(F)(F)F)cc3C(F)(F)F)c3c(F)ccn23)C1 [Compound 31, 1-[2,4-bis(trifluoromethyl)phenyl]-8-fluoro-N-[(3R,5R)-5-fluoro-1-methylpiperidin-3-yl]pyrrolo[1,2-d][1,2,4]triazin-4-amine]
Second: C[C@]1(O)C[C@@H](Nc2nnc(-c3ccc(C(F)(F)F)cc3C(F)(F)F)c3c(F)ccn23)C1 [Compound 38, (1s,3s)-3-({1-[2,4-bis(trifluoromethyl)phenyl]-8-fluoropyrrolo[1,2-d][1,2,4]triazin-4-yl}amino)-1-methylcyclobutan-1-ol]
The IC50 of the first is lower: 1 to 10 nM for the first, 10 to 100 nM for the second.

`Cc1ccc(-c2nnc(N[C@@H]3CCCN(C)C3)n3cccc23)c(OC(F)F)c1` [Compound 33, 1-[2-(difluoromethoxy)-4-methylphenyl]-N-[(3R)-1-methylpiperidin-3-yl]pyrrolo[1,2-d][1,2,4]triazin-4-amine] and `CCN1CCC[C@@H](Nc2nnc(-c3ccc(C)cc3OC(F)F)c3cccn23)C1` [Compound 34, 1-[2-(difluoromethoxy)-4-methylphenyl]-N-[(3R)-1-ethylpiperidin-3-yl]pyrrolo[1,2-d][1,2,4]triazin-4-amine] fall in the same range of IC50: 1 to 10 nM for the first, 1 to 10 nM for the second.

First: FC(F)Oc1cc(C(F)(F)F)ccc1-c1nnc(N[C@@H]2CCCNC2)n2cccc12 [Compound 35, 1-[2-(difluoromethoxy)-4-(trifluoromethyl)phenyl]-N-[(3R)-piperidin-3-yl]pyrrolo[1,2-d][1,2,4]triazin-4-amine]
Second: Cc1ccc(-c2nnc(N[C@@H]3CCCN(C)C3)n3cccc23)c(OC(F)(F)F)c1 [Compound 36, N-[(3R)-1-methylpiperidin-3-yl]-1-[4-methyl-2-(trifluoromethoxy)phenyl]pyrrolo[1,2-d][1,2,4]triazin-4-amine]
The IC50 of the first is higher: 10 to 100 nM for the first, 1 to 10 nM for the second. The second is the more potent here.

Compound `COc1ccc(-c2nnc(N[C@@H]3CCCN(C)C3)n3ccc(F)c23)c(OC(F)(F)F)c1` [Compound 39, 8-fluoro-1-[4-methoxy-2-(trifluoromethoxy)phenyl]-N-[(3R)-1-methylpiperidin-3-yl]pyrrolo[1,2-d][1,2,4]triazin-4-amine] has an IC50 of 1 to 10 nM.
